Key:
Experiment in all cases: relative viability (nuclei count vs DMSO), 5 days (fraction); higher = more cells survive
Imatinib + Navitoclax = compound: Cc1ccc(NC(=O)c2ccc(CN3CCN(C)CC3)cc2)cc1Nc1nccc(-c2cccnc2)n1 [Imatinib] + CC1(C)CCC(c2ccc(Cl)cc2)=C(CN2CCN(c3ccc(C(=O)NS(=O)(=O)c4ccc(N[C@H](CCN5CCOCC5)CSc5ccccc5)c(S(=O)(=O)C(F)(F)F)c4)cc3)CC2)C1 [Navitoclax] (partner 0.5 µM)
Procedure, shortened: (§1)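 Relative viability divides the nuclei count in treated wells by that in vehicle wells. Lung cancer cell lines were seeded in 1536-well plates, dosed by pin tool the next day, and fixed and stained after 5 days in one step with final 0.05% Triton X-100, 1% formaldehyde and 1 ug/ml Hoechst. Dosing was a single drug or a fixed anchor-drug dose plus five library-drug doses (not always all listed) in √10 steps, and values are medians of duplicate plates imaged at 4×.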

Imatinib + Pemetrexed = compound: Cc1ccc(NC(=O)c2ccc(CN3CCN(C)CC3)cc2)cc1Nc1nccc(-c2cccnc2)n1 [Imatinib] + Nc1nc2[nH]cc(CCc3ccc(C(=O)N[C@@H](CCC(=O)O)C(=O)O)cc3)c2c(=O)[nH]1 [Pemetrexed] (partner 0.2 µM)
Procedure, shortened: as §1

Imatinib + AZD7762 = compound: Cc1ccc(NC(=O)c2ccc(CN3CCN(C)CC3)cc2)cc1Nc1nccc(-c2cccnc2)n1 [Imatinib] + NC(=O)Nc1cc(-c2cccc(F)c2)sc1C(=O)N[C@H]1CCCNC1 [AZD7762] (partner 0.2 µM)
Procedure, shortened: as §1

Imatinib + Trametinib = compound: Cc1ccc(NC(=O)c2ccc(CN3CCN(C)CC3)cc2)cc1Nc1nccc(-c2cccnc2)n1 [Imatinib] + CC(=O)Nc1cccc(-n2c(=O)n(C3CC3)c(=O)c3c(Nc4ccc(I)cc4F)n(C)c(=O)c(C)c32)c1 [Trametinib] (partner 0.02 µM)
Procedure, shortened: as §1

| Cell Line | relative viability (Imatinib + Navitoclax; first compound 0.02 µM) | relative viability (Imatinib + Navitoclax; first compound 0.06325 µM) | relative viability (Imatinib + Navitoclax; first compound 0.2 µM) | relative viability (Imatinib + Navitoclax; first compound 0.6325 µM) | relative viability (Imatinib + Navitoclax; first compound 2 µM) | relative viability (Imatinib + Pemetrexed; first compound 0.02 µM) | relative viability (Imatinib + Pemetrexed; first compound 0.06325 µM) | relative viability (Imatinib + Pemetrexed; first compound 0.2 µM) | relative viability (Imatinib + Pemetrexed; first compound 0.6325 µM) | relative viability (Imatinib + Pemetrexed; first compound 2 µM) | relative viability (Imatinib + AZD7762; first compound 0.02 µM) | relative viability (Imatinib + AZD7762; first compound 0.06325 µM) | relative viability (Imatinib + AZD7762; first compound 0.2 µM) | relative viability (Imatinib + AZD7762; first compound 0.6325 µM) | relative viability (Imatinib + AZD7762; first compound 2 µM) | relative viability (Imatinib + Trametinib; first compound 0.02 µM) | relative viability (Imatinib + Trametinib; first compound 0.06325 µM) | relative viability (Imatinib + Trametinib; first compound 0.2 µM) | relative viability (Imatinib + Trametinib; first compound 0.6325 µM) | relative viability (Imatinib + Trametinib; first compound 2 µM) |
| --- | --- | --- | --- | --- | --- | --- | --- | --- | --- | --- | --- | --- | --- | --- | --- | --- | --- | --- | --- | --- |
| NCI-H1755 | 1.02 | 1.06 | 1.12 | 0.988 | 1.04 | 0.568 | 0.44 | 0.416 | 0.386 | 0.625 | 0.451 | 0.458 | 0.413 | 0.421 | 0.434 | 0.793 | 0.811 | 0.839 | 0.782 | 0.725 |
| NCI-H1792 | 0.744 | 0.557 | 0.761 | 0.644 | 0.567 | 1.06 | 0.931 | 0.848 |  | 0.748 | 0.727 | 0.7 | 0.513 |  | 0.34 | 0.534 | 0.311 | 0.521 |  | 0.427 |
| NCI-H1793 | 0.378 |  | 0.409 | 0.362 | 0.513 | 0.945 |  | 1 | 1.01 | 0.792 | 0.463 |  | 0.279 | 0.286 | 0.197 | 0.472 |  | 0.582 | 0.404 | 0.368 |
| NCI-H1915 | 0.788 |  | 0.807 | 0.759 | 0.777 | 0.536 |  | 0.516 | 0.461 | 0.572 | 0.705 |  | 0.781 | 0.659 | 0.665 | 0.328 |  | 0.293 | 0.304 | 0.312 |
| NCI-H1944 | 1.03 |  | 1.05 | 1.07 | 1.08 | 0.881 | 0.642 | 0.695 | 0.656 | 0.561 | 0.628 | 0.556 | 0.452 | 0.37 | 0.423 | 0.408 | 0.376 | 0.449 | 0.436 | 0.402 |
| NCI-H1975 | 1.11 | 1.27 | 1.22 | 1.03 | 1.13 | 0.308 | 0.299 | 0.299 | 0.309 | 0.284 | 0.754 | 0.701 | 0.646 | 0.652 | 0.646 | 0.364 | 0.273 | 0.375 | 0.41 | 0.326 |
| NCI-H1993 |  | 1 | 0.953 | 0.851 | 0.776 | 0.581 | 0.44 | 0.501 | 0.616 | 0.582 | 1.08 | 0.728 | 0.724 | 0.736 | 0.701 | 0.45 | 0.482 | 0.622 | 0.447 | 0.584 |
| NCI-H2085 | 1.16 | 1.07 | 1.33 | 1.13 |  | 0.837 | 0.892 | 0.917 |  | 0.834 | 1.03 | 0.87 |  | 1.14 | 0.879 | 0.49 | 0.515 | 0.535 | 0.58 | 0.513 |
| NCI-H2087 | 1.07 | 1.03 | 1.21 | 1.11 | 0.956 | 0.692 |  | 0.749 | 0.58 |  | 1.33 |  | 1.58 | 1.35 |  | 0.179 |  | 0.221 | 0.189 |  |
| NCI-H2126 | 0.883 |  | 0.865 | 0.851 | 0.824 | 0.667 | 0.524 | 0.704 | 0.634 | 0.725 |  | 0.668 | 1.03 | 0.894 | 0.981 | 0.525 | 0.43 | 0.565 | 0.57 | 0.574 |
| NCI-H2170 | 0.722 | 0.655 | 0.672 | 0.643 | 0.633 | 0.343 | 0.277 | 0.267 | 0.256 | 0.274 | 0.94 | 0.77 | 0.86 | 0.745 | 0.773 | 1 | 1.06 | 1.02 | 0.972 | 0.965 |
| NCI-H2347 | 0.792 | 0.675 | 0.688 | 0.823 | 0.859 | 0.371 | 0.44 | 0.416 | 0.467 | 0.416 | 0.824 |  | 0.848 |  | 0.657 | 0.35 |  | 0.309 | 0.285 | 0.273 |
| NCI-H2405 | 0.984 |  | 0.845 | 0.706 |  | 1.15 | 1.12 | 1.13 | 1.02 |  | 0.813 | 0.791 | 0.706 | 0.635 | 0.651 | 0.623 | 0.538 | 0.637 | 0.516 | 0.634 |
| NCI-H3122 |  | 1.11 | 1.08 | 1.06 | 1.01 | 0.202 | 0.211 | 0.198 | 0.185 | 0.2 |  |  | 1.07 | 0.926 | 1.05 | 0.25 | 0.292 | 0.236 | 0.253 | 0.216 |
| PC-3 [JPC-3] | 0.84 |  | 0.789 | 0.811 | 0.687 | 1.28 |  |  | 1.16 | 1.07 | 0.979 |  |  | 0.921 | 0.635 | 0.719 |  |  | 0.724 | 0.621 |
| PC-14 | 1.14 | 0.988 | 1.12 | 1.06 | 0.96 | 0.143 | 0.16 | 0.135 | 0.131 | 0.137 | 0.465 | 0.477 | 0.338 | 0.453 | 0.334 | 1.01 | 1.18 | 1.11 | 0.765 | 0.897 |
| RERF-LC-KJ | 1.09 | 0.999 | 1 | 0.83 | 0.954 | 0.448 | 0.369 | 0.507 | 0.487 | 0.43 | 1.01 | 0.523 | 1.19 | 0.88 | 0.967 | 0.806 | 0.97 | 0.936 | 0.909 | 0.771 |

From the supplement of paper PMC10307832
